In series [1] the target is T1, hNav1.3 (Homo sapiens, UniProt Q9NY46).
T1 construct: host or cells: HEK293
The experiment in a line: FLIPR membrane potential assay, hNav1.3. It counts as cell-based. Put shortly: (§1)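 Stable HEK293 lines, one per hNav isoform; red membrane potential dye, 30 min, 37° C; FLIPR^TETRA read at 1 s intervals over 300 s post-agonist.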

For another series, the target named is T2, hNav1.6 (Homo sapiens, UniProt Q9UQD0).
T2 construct: host or cells: HEK293
Kind of series: FLIPR membrane potential assay, hNav1.6. The class given is cell-based. Put shortly:
as §1

Series [2] deals with T1, hNav1.3. The experiment in a line: Automated patch clamping (QPatch-16), hNav1.3. It counts as cell-based. The note with it: mean±SEM. As for the experimental part:
(§2) HEK293 cells stably expressing hNav1.1-1.7 or CHO cells stably expressing hNav1.8 (as described in Example 3 above) were cultured in a T-175 flask in selection antibiotic-free media at 37° C. Cells were grown to 70-80% confluence and harvested using Detachin (Bio-Scientific, NSW, Australia) at 37° C. for 2 min. Dissociated cells were then resuspended in Ex-Cell ACF CHO Medium with HEPES (25 mM; Sigma-Aldrich Co.) and allowed to recover on the QStirrer for 30 min.
(§3) The extracellular solution contained in mM: NaCl 145, KCl 4, CaCl2 2, MgCl2 1, HEPES 10 and glucose 10. The pH was adjusted to 7.4 with NaOH and osmolarity was adjusted with sucrose to 305 mOsm. The intracellular solution contained in mM: CsF 140, ethylene glycol tetraacetic acid (EGTA)/CsOH 1/5, HEPES 10 and NaCl 10. The pH was adjusted to 7.3 with CsOH and osmolarity adjusted with sucrose to 320 mOsm. […]
(§4) The current-voltage (IV) curve was constructed with a holding potential of −80 mV followed by a pre-pulse of −100 mV for 50 ms and a series of 50 ms step pulses that ranged from −80 to 50 mV in 5 mV increments before returning to a holding potential of −80 mV. Voltage-dependence of activation was determined as normalized Nav conductance (GNa) using: GNa=INa/(Vmemb−Vrev), where Vmemb is the membrane potential and Vrev is the reversal potential for each cell. […]

The target of a further series is T3, hNav1.2 (Homo sapiens, UniProt Q99250).
T3 construct: host or cells: HEK293
The experiment in a line: FLIPR membrane potential assay, hNav1.2. The class given is cell-based. Put shortly:
as §1

Series [3] has as its system ciguatoxin-induced spontaneous pain in mice. The experiment in a line: Ciguatoxin-induced spontaneous pain. It counts as in vivo. The settings on record: intraplantar, co-injected with ciguatoxin. As for the experimental part: For behavioural assessment adult male C57BL/6J mice aged 6-8 weeks were used. Animals were housed in groups of 3 or 4 per cage, under 12 h light-dark cycles and had standard rodent chow and water ad libitum.
Ciguatoxin (P-CTX-1; isolated in accordance with the protocol of Hamilton et al. (2002) Toxicon, 40(6): 685-693) was diluted in phosphate-buffered saline/0.1% BSA (10 nM) and administered by shallow subcutaneous (intraplantar) injection to the left hind paw of mice in a volume of 40 μL under light isoflurane (3%) anesthesia. Mice were then placed individually into polyvinyl boxes (10×10×10 cm), and spontaneous pain behavior (licks and flinches) was counted by an investigator unaware of the treatments received from video recordings for 10 min post-injection.

Another series addresses T4, hNav1.4 (Homo sapiens, UniProt P35499).
T4 construct: host or cells: HEK293
The experiment in a line: FLIPR membrane potential assay, hNav1.4. It counts as cell-based. Summed up:
as §1

Another series deals with T5, hNav1.5 (Homo sapiens, UniProt Q14524).
T5 construct: host or cells: HEK293
Kind of series: FLIPR membrane potential assay, hNav1.5. It counts as cell-based. Put shortly: as §1

A short description of series [4]: Stability of Pnc1a in solutions (RP-HPLC/MS). It counts as physicochemical. The note with it: room temperature.
The target of the next series is T6, hNav1.1 (Homo sapiens, UniProt P35498).
T6 construct: host or cells: HEK293
The experiment in a line: Automated patch clamping (QPatch-16), hNav1.1. It counts as cell-based. The settings on record: mean±SEM. As for the experimental part: as §2, §3, §4

T1 sequence (Q9NY46 whole entry): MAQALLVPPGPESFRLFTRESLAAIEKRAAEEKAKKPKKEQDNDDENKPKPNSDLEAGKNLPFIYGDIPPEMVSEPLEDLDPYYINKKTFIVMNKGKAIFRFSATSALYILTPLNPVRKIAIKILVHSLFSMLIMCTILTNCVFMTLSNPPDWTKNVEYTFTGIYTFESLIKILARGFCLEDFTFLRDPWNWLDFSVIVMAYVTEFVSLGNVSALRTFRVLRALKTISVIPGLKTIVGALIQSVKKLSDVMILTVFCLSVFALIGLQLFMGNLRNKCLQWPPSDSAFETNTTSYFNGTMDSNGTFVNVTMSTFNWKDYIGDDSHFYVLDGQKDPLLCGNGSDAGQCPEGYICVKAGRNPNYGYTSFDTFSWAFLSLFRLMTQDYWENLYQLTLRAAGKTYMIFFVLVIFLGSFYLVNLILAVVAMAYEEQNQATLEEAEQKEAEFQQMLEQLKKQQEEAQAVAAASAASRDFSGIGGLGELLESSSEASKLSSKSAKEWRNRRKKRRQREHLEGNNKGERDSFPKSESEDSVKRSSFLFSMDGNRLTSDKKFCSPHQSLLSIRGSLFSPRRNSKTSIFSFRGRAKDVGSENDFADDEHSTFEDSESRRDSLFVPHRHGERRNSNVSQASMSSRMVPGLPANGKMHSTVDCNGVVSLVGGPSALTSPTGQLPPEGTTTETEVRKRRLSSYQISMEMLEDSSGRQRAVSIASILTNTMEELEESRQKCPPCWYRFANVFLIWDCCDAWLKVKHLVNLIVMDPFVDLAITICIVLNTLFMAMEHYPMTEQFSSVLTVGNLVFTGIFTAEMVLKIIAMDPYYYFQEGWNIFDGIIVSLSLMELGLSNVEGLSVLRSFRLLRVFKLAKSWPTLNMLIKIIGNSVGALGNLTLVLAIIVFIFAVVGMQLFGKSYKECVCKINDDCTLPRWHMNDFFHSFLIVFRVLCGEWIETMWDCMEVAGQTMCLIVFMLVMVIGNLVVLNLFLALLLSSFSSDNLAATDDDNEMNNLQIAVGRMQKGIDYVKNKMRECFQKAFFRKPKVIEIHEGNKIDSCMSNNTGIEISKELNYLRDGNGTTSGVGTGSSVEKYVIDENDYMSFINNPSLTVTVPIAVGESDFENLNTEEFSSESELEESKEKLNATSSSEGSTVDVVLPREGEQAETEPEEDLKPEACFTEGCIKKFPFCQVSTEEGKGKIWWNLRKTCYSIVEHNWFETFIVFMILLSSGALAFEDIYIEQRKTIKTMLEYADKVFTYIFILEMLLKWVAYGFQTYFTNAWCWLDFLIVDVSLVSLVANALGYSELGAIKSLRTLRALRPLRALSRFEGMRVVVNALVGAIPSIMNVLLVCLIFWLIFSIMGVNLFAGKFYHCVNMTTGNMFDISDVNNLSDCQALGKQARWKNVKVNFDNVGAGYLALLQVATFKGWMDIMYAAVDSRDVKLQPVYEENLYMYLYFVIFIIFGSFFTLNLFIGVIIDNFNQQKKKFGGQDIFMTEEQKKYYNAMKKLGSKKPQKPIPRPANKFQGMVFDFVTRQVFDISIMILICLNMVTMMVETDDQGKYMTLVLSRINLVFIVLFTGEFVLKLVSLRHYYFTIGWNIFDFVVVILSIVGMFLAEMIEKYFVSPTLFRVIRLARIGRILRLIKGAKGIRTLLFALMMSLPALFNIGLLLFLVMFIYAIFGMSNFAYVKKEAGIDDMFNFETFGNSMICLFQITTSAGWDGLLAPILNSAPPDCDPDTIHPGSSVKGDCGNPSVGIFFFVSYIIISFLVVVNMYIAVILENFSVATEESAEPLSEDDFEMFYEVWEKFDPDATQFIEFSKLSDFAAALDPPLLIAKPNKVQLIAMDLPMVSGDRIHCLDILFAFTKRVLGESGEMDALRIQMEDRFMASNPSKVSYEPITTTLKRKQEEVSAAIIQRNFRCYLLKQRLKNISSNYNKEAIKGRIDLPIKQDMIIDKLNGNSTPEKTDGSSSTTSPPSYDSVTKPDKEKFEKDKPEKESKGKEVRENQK
T3 sequence (Q99250 whole entry): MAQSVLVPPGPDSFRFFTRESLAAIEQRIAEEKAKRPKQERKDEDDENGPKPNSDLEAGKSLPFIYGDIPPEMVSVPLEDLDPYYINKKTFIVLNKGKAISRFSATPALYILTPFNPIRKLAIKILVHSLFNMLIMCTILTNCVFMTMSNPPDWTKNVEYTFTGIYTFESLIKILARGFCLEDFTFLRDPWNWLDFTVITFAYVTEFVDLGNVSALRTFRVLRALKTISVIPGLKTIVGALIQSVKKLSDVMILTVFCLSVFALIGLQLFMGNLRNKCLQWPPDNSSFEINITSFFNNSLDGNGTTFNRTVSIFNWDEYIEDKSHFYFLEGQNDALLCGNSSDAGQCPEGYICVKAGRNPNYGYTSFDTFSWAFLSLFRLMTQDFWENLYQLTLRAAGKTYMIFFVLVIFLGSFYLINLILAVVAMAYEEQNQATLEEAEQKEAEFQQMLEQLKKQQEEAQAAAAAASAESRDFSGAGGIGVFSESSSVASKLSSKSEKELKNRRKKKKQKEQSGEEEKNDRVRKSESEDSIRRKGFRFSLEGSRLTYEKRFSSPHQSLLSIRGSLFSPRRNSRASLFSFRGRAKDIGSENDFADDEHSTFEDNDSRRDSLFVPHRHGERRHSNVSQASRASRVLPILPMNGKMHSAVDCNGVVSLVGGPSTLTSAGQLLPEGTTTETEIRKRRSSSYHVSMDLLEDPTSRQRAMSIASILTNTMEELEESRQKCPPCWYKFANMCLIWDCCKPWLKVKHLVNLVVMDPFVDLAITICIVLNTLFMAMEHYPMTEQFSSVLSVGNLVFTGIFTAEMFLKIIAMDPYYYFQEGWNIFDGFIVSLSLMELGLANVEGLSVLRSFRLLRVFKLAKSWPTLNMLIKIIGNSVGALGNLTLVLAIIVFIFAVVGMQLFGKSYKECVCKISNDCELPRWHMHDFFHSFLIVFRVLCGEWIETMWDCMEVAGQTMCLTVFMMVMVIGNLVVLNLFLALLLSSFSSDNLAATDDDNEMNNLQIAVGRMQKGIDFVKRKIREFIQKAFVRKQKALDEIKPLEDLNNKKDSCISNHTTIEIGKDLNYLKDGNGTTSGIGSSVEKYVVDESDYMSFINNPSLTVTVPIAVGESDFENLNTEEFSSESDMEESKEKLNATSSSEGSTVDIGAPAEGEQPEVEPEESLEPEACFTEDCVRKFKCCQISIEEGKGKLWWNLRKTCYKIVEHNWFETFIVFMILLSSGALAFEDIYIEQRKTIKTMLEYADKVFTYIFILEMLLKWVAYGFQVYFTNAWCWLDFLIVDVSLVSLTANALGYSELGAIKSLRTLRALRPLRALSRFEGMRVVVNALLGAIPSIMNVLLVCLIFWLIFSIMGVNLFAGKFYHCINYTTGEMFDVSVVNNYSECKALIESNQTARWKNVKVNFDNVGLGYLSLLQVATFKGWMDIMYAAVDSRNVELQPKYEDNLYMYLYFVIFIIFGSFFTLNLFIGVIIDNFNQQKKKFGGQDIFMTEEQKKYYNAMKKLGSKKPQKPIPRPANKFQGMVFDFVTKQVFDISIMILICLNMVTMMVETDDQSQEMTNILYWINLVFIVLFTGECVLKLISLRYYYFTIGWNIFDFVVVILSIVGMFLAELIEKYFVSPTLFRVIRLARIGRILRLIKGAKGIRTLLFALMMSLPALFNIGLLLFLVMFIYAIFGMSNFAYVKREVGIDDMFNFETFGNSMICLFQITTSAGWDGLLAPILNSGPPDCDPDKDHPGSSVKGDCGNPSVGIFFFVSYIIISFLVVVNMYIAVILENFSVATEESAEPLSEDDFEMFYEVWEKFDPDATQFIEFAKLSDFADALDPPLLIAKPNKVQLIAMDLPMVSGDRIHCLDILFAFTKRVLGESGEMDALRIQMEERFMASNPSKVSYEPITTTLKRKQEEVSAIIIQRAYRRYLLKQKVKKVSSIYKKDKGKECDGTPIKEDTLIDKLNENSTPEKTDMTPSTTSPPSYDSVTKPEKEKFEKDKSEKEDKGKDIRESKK

For the molecule `CSCC[C@@H]1NC(=O)[C@H](Cc2ccc(O)cc2)NC(=O)[C@H](CCCNC(=N)N)NC(=O)[C@@H](NC(=O)[C@@H](N)CC(=O)O)CSSC[C@@H]2NC(=O)[C@@H]3CSSC[C@@H](C(=O)N[C@@H](C)C(=O)N[C@@H](Cc4c[nH]c5ccccc45)C(=O)N[C@@H](CC(=O)O)C(=O)N[C@@H](Cc4ccccc4)C(=O)N[C@H](C(=O)N[C@@H](Cc4ccccc4)C(=O)N[C@H](C(=O)O)[C@@H](C)O)[C@@H](C)O)NC(=O)[C@H](Cc4ccc(O)cc4)NC(=O)[C@H](CCCCN)NC(=O)[C@H](CCSC)NC(=O)[C@H](CCCCN)NC(=O)[C@H](CCCNC(=N)N)NC(=O)[C@H](CCCCN)NC(=O)[C@H](CSSC[C@H](NC(=O)[C@H](CC(=O)O)NC(=O)CNC(=O)[C@H](Cc4ccccc4)NC1=O)C(=O)N[C@@H](CCC(=O)O)C(=O)N[C@@H](CCCCN)C(=O)N[C@@H](CC(=O)O)C(=O)N[C@@H](CCC(=O)O)C(=O)N[C@@H](CC(=O)O)C(=O)N3)NC(=O)CNC(=O)[C@H](CC(C)C)NC(=O)[C@H](Cc1cnc[nH]1)NC(=O)[C@H](CCCCN)NC2=O` [Pnc1a], the IC50 against hNav1.3 [1] is 8.13 µM; against hNav1.6 it was 18.6 µM; on hNav1.2, 2.95 µM; at hNav1.4, 11.2 µM; against hNav1.5, 85.1 µM. Moreover, the “pIC50 Nav1.3” value on hNav1.3 [2] is reported as 6.68±0.1 M. In addition, the “ciguatoxin-induced spontaneous pain behaviours” value in series [3] is recorded as “significantly reduced”. Further, the “time after which no intact peptide remained” value was 12 days in series [4] (PBS pH 6.5, 100 μM) and 25 days in series [4] (PBS/saline pH 5.7, 100 μM). The “stability over the 25 day period” value in series [4] (bicarbonate buffered saline pH 5.7, 100 μM) is recorded as “remained intact”; in [4] (bicarbonate buffered saline pH 7.1, 100 μM), “remained intact”; in series [4] (saline pH 3, 100 μM), “remained intact”. In addition, the “pIC50 Nav1.1” value at hNav1.1 was found to be 7.43±0.1 M.

Source of the values: US10662229B2, “Spider venom peptides and methods of use for modulating sodium channels” (priority 2016, dated 2020).
